One series has as its system male mice. The following applies: oral; cited from earlier work.
The next series deals with EL mice (EL[s]). As to the kind of experiment: DNA fragmentation (TdT labeling) in brain sections of EL mice after oral nefiracetam. It counts as in vivo. The following applies: EL[s] mice aged 30 weeks, 10 mg/kg oral once a day. The text has this:
Employed were three groups each constituting 6 mice aged 30 weeks, that is, EL mice (EL[s]) given an epileptogenic stimulus once a week and thus having a low threshold, EL mice (EL[ns]) not given an epileptogenic stimulus and free from epileptic seizure at least during observation and DDY mice as a control. Each group was compared with that consisting of 40 to 50 week old mice in order to omit the influence of aging. A section of 10 μm was fixed to a gelatin-coated sliding glass in a cryostat, followed by permeabilization with 0.1% sodium citrate and 0.1% Triton X-100 at 4° C. for 5 minutes. DNA fragmentation was detected by polymerizing a fluorescein-labeled nucleotide with the 3′-OH ends of the cleaved DNA by using terminal transferase (TdT). Reaction with an anti-fluorescein antibody conjugated with peroxidase (PD) or alkali phosphatase (AP) developed color, thereby enabling detection by an optical microscope. As a negative control, TdT(−) and as a positive control, a sample treated with DNAaseI were employed. Nefiracetam was orally administered to the test group (aged 30 weeks, EL[s]) once (10 mg/kg) a day. While thus controlling the occurrence of epileptic seizure, a relationship between the nefiracetam administration terms (1, 3, 5 and 7 days) and appearing frequency of DNA fragmentation was observed.
As a result, DNA fragmentation was detected from neither DDY mice aged 30 weeks (adult) nor those aged 40 weeks (having an influence of aging) which served as a negative control. In the EL mice (EL[s]) having epileptic seizure, whether they were aged 30 weeks or 40 weeks, DNA fragmentation was recognized from their hippocampus and parietal cortex. In the EL mice (El[ns]) free from epileptic seizure, whether they were aged 30 weeks or 40 weeks, DNA fragmentation was recognized in only a narrower region at a lower frequency than the EL[s]. In their hippocampus, no DNA fragmentation was recognized.
EL mice serve as a model of the region-specific secondary generalized epilepsy. Although having no severe tissue injury, they are known for accelerated production of free radicals in the hippocampus and parietal cortex constituting a partial complex seizure, a rise in NO and site-specific expression of the immediately early genes (c-fos, zif) during an epileptogenicity acquiring procedure.

The mark [1] stands for this setting: five days after the administration, FIG. 2.
Where [2] appears, read: single administration (one day), FIG. 1.

The values below come from US20040077709A1, “Neuronal death inhibitors” (DAIICHI PHARMACEUTICAL CO., LTD., priority 1999, published 2004).

Turning to `Cc1cccc(C)c1NC(=O)CN1CCCC1=O` [nefiracetam, 2-oxo-1-pyrrolidinylacetic acid 2,6-dimethylanilide], the acute toxicity in the series on male mice is 2,005 mg/kg. In the series with EL mice (EL[s]) (setting [1]), the “DNA fragmentation in the hippocampus” value is “disappeared” and the “DNA fragmentation in the parietal cortex” value is recorded as “no change”. For the same molecule, in the series with EL mice (EL[s]) (setting [2]), the “DNA fragmentation in the hippocampus” value is given as “recognized” and the “DNA fragmentation in the parietal cortex” value is on record as “recognized”.
